Like-named read-outs stand apart in the source and are kept apart here.
Assays:
Format in all cases: biochemical
recombinant human TOP2A [1] = molecular target: T1, recombinant human TOP2A (Homo sapiens, UniProt P11388); assay: DNA decatenation assay, recombinant TOP2A
T1 construct: Using recombinant full-length human TOP2A and TOP2B enzymes; YFP (N, cleaved yes); made in house; host or cells: HEK293F
Protocol: (§1) The human topoisomerase II decatenation assay was performed to determine the inhibitory effects of BNS-22 and new compounds as previously described with minor modifications[14],[36]. The assay was performed using recombinant human TOP2A or TOP2B generated using the HEK293F YFP-tag expression system as previously described[18],[19],[36]. Briefly, plasmids encoding YFP-TOP2A or YFP-TOP2B were transfected into HEK293F cells (Catalog number 11625019, Thermofisher Scientific), and TOP2 proteins were isolated from cell lysates by anti-YFP nanobody affinity chromatography. After elution by TEV protease cleavage, TOP2 proteins were FPLC purified by sequential cation exchange and size exclusion chromatography. Plasmid encoding TOP2B C88Y was generated by round-the-horn PCR mutagenesis and the sequence was verified by full-plasmid sequencing. Purified TOP2 proteins were stored in a storage buffer containing 20 mM HEPES pH 7.5, 500 mM NaCl, 0.5 mM TCEP, 25% (v/v) glycerol at -80 °C. For decatenation assays, purified TOP2 proteins were incubated with 200 ng kDNA (Topogen) in a reaction buffer containing 50 mM Tris−HCl (pH 8), 100 mM NaCl, 10 mM MgCl2, 0.5 mM DTT, 2 mM ATP, 0.1 mM tris(2-carboxyethyl)phosphine (TCEP), 5% (v/v) glycerol, 70 μg/mL bovine serum albumin, and 1/10 volume of each compound diluted in 10% DMSO (final DMSO concentration 1%) for 40 min at 37 °C. The reaction was then stopped by the addition of gel loading buffer (0.5 volumes of 60% (w/v) glycerol, 60 mM EDTA, 20 mM Tris−HCl (pH 7.5), 0.5 mg/mL bromophenol blue) and the samples were placed on ice. Reaction products were resolved by agarose gel electrophoresis in TBE buffer containing GelRed stain (Biotium). Gels were visualized using an iBright CL1000 (Thermofisher Scientific). Band intensities were quantified using FIJI, and the signal of the treated samples was normalized to the value of the control (untreated sample; 100%) present on the same gel. The normalized signal of three independent measurements was then expressed as mean ± SD. Each presented data point was obtained from distinct sample. Normalized values were plotted as a function of inhibitor concentration to determine IC50 values by nonlinear regression with variable slope using Prism 9 (GraphPad).

recombinant human TOP2A [2] = molecular target: T1, recombinant human TOP2A; assay: In vitro ATPase activity of TOP2A (coupled assay)
How it was run: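 Recombinant human TOP2A or TOP2B, prediluted to 500 nM in HEPES pH 7.5/500 mM NaCl storage buffer, in an NADH-coupled ATP hydrolysis assay, ATP-initiated at 30 °C. NADH fluorescence decay (ex 340, em 480) read every 30 s for 120 cycles. Slopes background-corrected, normalized to untreated controls, and fitted for IC50.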

recombinant human TOP2B = molecular target: T2, recombinant human TOP2B (Homo sapiens, UniProt Q02880); assay: DNA decatenation assay, recombinant TOP2B
T2 construct: Using recombinant full-length human TOP2A and TOP2B enzymes; YFP (N, cleaved yes); made in house; host or cells: HEK293F
T2 sequence (Q02880 1-1621 isoform Q02880-2): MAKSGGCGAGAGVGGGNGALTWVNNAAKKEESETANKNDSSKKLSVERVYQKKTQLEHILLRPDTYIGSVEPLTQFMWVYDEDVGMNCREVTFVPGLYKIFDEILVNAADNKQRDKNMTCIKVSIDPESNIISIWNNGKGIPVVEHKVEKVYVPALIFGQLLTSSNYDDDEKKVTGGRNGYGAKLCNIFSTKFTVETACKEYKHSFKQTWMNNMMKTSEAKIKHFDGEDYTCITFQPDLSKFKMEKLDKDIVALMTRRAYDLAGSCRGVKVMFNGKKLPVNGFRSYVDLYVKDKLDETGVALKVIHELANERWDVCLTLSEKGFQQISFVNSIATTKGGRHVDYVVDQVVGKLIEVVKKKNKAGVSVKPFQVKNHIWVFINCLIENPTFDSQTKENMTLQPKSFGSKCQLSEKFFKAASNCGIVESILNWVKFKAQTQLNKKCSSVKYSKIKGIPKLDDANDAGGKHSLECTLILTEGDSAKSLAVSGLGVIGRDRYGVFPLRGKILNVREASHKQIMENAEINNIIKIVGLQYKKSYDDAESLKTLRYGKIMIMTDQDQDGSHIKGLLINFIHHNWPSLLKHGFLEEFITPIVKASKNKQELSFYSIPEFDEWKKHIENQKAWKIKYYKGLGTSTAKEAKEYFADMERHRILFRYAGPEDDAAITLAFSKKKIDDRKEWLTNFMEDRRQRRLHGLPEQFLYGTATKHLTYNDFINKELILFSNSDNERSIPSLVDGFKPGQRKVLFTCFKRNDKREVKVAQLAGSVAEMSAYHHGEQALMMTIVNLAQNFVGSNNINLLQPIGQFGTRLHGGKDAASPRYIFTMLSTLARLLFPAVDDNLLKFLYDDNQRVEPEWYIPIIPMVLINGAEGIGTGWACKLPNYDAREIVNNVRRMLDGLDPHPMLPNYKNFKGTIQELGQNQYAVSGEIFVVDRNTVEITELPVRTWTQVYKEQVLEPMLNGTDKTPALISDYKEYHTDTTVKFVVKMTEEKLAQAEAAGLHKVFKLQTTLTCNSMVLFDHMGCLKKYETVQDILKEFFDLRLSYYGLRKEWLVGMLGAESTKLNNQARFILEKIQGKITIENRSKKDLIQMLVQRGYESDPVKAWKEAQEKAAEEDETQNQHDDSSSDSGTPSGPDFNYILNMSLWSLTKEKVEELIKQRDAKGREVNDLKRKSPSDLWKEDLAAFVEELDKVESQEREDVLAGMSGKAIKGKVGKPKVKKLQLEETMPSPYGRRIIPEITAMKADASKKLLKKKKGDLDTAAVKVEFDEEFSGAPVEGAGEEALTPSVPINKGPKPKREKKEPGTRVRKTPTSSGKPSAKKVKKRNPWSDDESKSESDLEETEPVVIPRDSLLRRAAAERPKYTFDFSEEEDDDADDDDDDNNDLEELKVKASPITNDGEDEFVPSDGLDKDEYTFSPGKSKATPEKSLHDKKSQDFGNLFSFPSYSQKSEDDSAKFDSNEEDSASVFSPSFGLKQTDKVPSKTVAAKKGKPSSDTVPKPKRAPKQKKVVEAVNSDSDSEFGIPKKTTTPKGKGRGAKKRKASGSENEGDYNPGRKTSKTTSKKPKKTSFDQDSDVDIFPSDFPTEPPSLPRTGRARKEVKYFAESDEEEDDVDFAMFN
Protocol: as §1

[3] = enzyme expressed in HEK293F, n=3
[4] = independent replicates, normalized to 0 drug, read-out: Normalized % TOP2A activity
[5] = independent replicates, read-out: Normalized % TOP2A activity, ATPase

T1 sequence (P11388 whole entry): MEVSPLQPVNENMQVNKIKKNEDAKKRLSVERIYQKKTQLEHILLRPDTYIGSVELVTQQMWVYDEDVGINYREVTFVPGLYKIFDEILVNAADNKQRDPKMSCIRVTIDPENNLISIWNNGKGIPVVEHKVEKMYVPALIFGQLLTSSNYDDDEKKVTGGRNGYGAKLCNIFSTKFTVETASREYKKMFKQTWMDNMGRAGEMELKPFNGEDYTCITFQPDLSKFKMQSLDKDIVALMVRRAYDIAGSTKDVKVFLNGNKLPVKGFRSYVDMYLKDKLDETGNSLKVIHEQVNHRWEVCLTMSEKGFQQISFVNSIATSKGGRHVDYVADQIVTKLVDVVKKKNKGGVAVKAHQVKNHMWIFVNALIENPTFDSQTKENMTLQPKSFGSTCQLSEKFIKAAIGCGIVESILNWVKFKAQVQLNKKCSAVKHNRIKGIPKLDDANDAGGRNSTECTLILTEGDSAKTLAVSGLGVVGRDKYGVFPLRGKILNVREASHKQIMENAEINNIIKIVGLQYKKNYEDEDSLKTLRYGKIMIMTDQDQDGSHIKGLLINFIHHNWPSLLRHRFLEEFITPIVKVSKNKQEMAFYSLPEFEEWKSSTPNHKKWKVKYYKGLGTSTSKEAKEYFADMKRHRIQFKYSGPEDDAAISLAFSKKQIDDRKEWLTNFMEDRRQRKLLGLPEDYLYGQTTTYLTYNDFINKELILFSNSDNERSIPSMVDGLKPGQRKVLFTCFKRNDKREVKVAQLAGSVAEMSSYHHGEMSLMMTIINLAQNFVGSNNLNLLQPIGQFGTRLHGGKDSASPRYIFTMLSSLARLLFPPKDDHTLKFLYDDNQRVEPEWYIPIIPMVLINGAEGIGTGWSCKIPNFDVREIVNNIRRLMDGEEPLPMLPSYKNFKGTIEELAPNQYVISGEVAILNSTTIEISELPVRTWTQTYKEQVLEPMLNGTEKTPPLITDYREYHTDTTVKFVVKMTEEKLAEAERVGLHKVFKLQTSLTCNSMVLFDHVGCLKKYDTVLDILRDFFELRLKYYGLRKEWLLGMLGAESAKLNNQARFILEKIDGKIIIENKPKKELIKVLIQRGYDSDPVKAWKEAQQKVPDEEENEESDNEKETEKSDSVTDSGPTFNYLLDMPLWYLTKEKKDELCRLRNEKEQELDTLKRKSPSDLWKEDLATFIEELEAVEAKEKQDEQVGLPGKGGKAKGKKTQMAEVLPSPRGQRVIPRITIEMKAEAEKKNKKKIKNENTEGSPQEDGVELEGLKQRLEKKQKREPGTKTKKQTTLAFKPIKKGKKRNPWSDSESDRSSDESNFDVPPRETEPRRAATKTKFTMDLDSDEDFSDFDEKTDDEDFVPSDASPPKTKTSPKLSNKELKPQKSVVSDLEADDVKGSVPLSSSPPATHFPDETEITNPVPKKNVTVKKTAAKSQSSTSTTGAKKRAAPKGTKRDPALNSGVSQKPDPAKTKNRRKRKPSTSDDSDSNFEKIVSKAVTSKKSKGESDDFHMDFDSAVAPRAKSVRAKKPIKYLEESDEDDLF

CCCc1cc(=O)oc2c(C(=O)N3CCCc4ccccc43)c(OCCN3CCN(C)CC3)ccc12 [topobexin (9)]
remaining activity at 0.02 µM (recombinant human TOP2A [1]; 0.02 μM, independent replicates, read-out: Normalized % TOP2A activity, decatenation): 87.1%
remaining activity at 0.313 µM (recombinant human TOP2A [1]; 0.313 μM, independent replicates, read-out: Normalized % TOP2A activity, decatenation): 96.1%
remaining activity at 0.625 µM (recombinant human TOP2A [1]; 0.625 μM, independent replicates, read-out: Normalized % TOP2A activity, decatenation): 91.5%
IC50 (recombinant human TOP2A [1]; [3]): 4.8 µM
remaining activity at 0.03125 µM (recombinant human TOP2A [2]; 0.03125 μM, independent replicates, read-out: Normalized % TOP2A activity, ATPase): 89.4%
remaining activity at 0.0625 µM (recombinant human TOP2A [2]; [4]): 89.1%
remaining activity at 0.0625 µM (recombinant human TOP2A [2]; [5]): 92.8%
remaining activity at 0.125 µM (recombinant human TOP2A [2]; 0.125 μM, independent replicates, normalized to 0 drug, read-out: Normalized % TOP2A activity): 88.8%
remaining activity at 0.25 µM (recombinant human TOP2A [2]; [4]): 87.4%
remaining activity at 0.25 µM (recombinant human TOP2A [2]; [5]): 79.6%
remaining activity at 0.5 µM (recombinant human TOP2A [2]; 0.5 μM, independent replicates, normalized to 0 drug, read-out: Normalized % TOP2A activity): 81.9%
remaining activity at 1 µM (recombinant human TOP2A [2]; 1 μM, independent replicates, normalized to 0 drug, read-out: Normalized % TOP2A activity): 73.3%
remaining activity at 2 µM (recombinant human TOP2A [2]; 2 μM, independent replicates, normalized to 0 drug, read-out: Normalized % TOP2A activity): 53.8%
remaining activity at 4 µM (recombinant human TOP2A [2]; 4 μM, independent replicates, normalized to 0 drug, read-out: Normalized % TOP2A activity): 26.2%
remaining activity at 8 µM (recombinant human TOP2A [2]; [4]): 5.71%
remaining activity at 8 µM (recombinant human TOP2A [2]; [5]): 28.6%
remaining activity at 16 µM (recombinant human TOP2A [2]; 16 μM, independent replicates, read-out: Normalized % TOP2A activity, ATPase): 14.4%
IC50 (recombinant human TOP2A [2]; n=3): 4.09 µM
remaining activity at 0.039 µM (recombinant human TOP2B; 0.039 μM, independent replicates, read-out: Normalized % TOP2B activity, decatenation): 92.3%
remaining activity at 0.313 µM (recombinant human TOP2B; 0.313 μM, independent replicates, read-out: Normalized % TOP2B activity, decatenation): 29.3%
remaining activity at 0.625 µM (recombinant human TOP2B; 0.625 μM, independent replicates, read-out: Normalized % TOP2B activity, decatenation): 15.5%
remaining activity at 1.25 µM (recombinant human TOP2B; 1.250 μM, independent replicates, read-out: Normalized % TOP2B activity, decatenation): 10.9%
remaining activity at 2.5 µM (recombinant human TOP2B; 2.500 μM, independent replicates, read-out: Normalized % TOP2B activity, decatenation): 11.1%
remaining activity at 5 µM (recombinant human TOP2B; 5.000 μM, independent replicates, read-out: Normalized % TOP2B activity, decatenation): 9.87%
remaining activity at 20 µM (recombinant human TOP2B; 20.000 μM, independent replicates, read-out: Normalized % TOP2B activity, decatenation): 5.03%
SRbeta (SRTOP2B), decatenation activity (recombinant human TOP2B; TOP2A IC50 divided by TOP2B IC50): 25
IC50 (recombinant human TOP2B; [3]): 0.19 µM
